Source: article PMC9323266, “Competitive Metabolism of Polycyclic Aromatic Hydrocarbons (PAHs): An Assessment Using In Vitro Metabolism and Physiologically Based Pharmacokinetic (PBPK) Modeling” (International Journal of Environmental Research and Public …, 2022)
Like-named read-outs stand apart in the source and are kept apart here.

Assays:
[1] = In vitro metabolism (substrate disappearance) in pooled human liver microsomes; type: in vitro ADME; settings: both sexes; for microsomal CLint: human, microsomes, pH 7.4, human hepatic microsomes
Description: (§1) Pooled human liver microsome samples were obtained from Sekisui Xenotech, LLC (Kansas City, KS, USA). Pooled samples contained contributions from 200 individuals having equal male:female ratio and predominantly from humans between 19 and 78 years of age (3 individuals 10–18 years old).
(§2) Briefly, within 500 µL total volume, reactions consisted of MgCl2 (3 mM), microsomes (2.0 mg/mL), 0.1 M phosphate buffer (pH 7.4), and excess NADPH (1.5 mM). Control samples using inactivated microsomes absent of NADPH were also included. Microsomes were preactivated via 37 °C incubation on a thermal shaker for 5 min. […] Samples were incubated at 37 °C for 0–30 min or 0–60 min, respectively. Reactions were quenched by adding 500 µL 0.9 M H2SO4, and samples were immediately placed on ice until extraction. A standard curve was prepared (0.015 µM–25.0 µM) in inactivated microsomes. An internal standard was added to each quenched sample (DBC for BaP kinetics reactions and BaP for DBC kinetics reactions). Experiments were performed in triplicate.
(§3) Analytes were extracted from samples with liquid–liquid extraction and measured using high-performance liquid chromatography (HPLC). First, BaP, DBC, or retene was added as an internal standard depending on incubations conditions being tested. Samples were extracted using three 500 µL volumes of ethyl acetate. Extracts were dried under a gentle stream of nitrogen and resolubilized in 500 µL methanol. Analytes were quantified by reverse phase HPLC using an Agilent 1260 Infinity HPLC system equipped with an Agilent G4290B variable wavelength detector and an Agilent G1321B SPECTRA fluorescence detector (Santa Clara, CA, USA). Sample (10 µL) was injected into an Ascentis 25 cm × 4.6 mm, 5 µm C18 column (Sigma-Aldrich, St. Louis, MO, USA). A gradient of water and acetonitrile from 55:45 to 0:100 was employed from 0 to 10 min and then was held at 100% acetonitrile until 22 min at a flow rate of 0.95 mL/min. […] Excitation and emission wavelengths were 230 nm and 430 nm, respectively. […] Quantification was accomplished using a linear regression fit to an external calibration curve prepared in tandem with samples.
(§4) As with previous in vitro PAH metabolism studies conducted in our lab, metabolism rates were calculated based on substrate disappearance. […] Confidence intervals of metabolism rates were calculated using a nonparametric bootstrap, where metabolism rates were resampled with replacement at each concentration, and the regression was repeated on the resampled dataset (n = 1000).
(§5) These two models include a Michaelis–Menten clearance equation for non-saturable high-capacity/low-affinity enzymes (Equation (2)) and a double Michaelis–Menten equation for saturable high-capacity/low-affinity enzymes (Equation (3)). Models were optimized using a maximum likelihood objective. The Bayesian information criterion (BIC) was used to judge the best-fit model for evaluating metabolism. For Michaelis–Menten kinetics, intrinsic clearance values (Clint) of the first order phase were estimated by dividing the Vmax by the respective Km. Fit parameter confidence intervals were calculated using a parametric bootstrap (n = 1000), where each best fit model was re-optimized to sampled metabolic rates assuming a normal distribution at each […]:(1) dS/dt=Vmax×S/Km+S (2) dS/dt=Vmax1×S/Km1+S+Clint2×S (3) dS/dt=Vmax1×S/Km1+S+Vmax2×S/Km2+S

human hepatic microsomes = test: as above; type: in vitro ADME; settings: human hepatic microsomes
Description: as §1, §2, §3, §4, §5

[2] = system: DBC metabolism in human hepatic microsomes; test: Competitive inhibition of DBC metabolism in human hepatic microsomes; type: in vitro ADME; settings: both sexes, human, pH 7.4
Description: (§6) Competitive inhibition of PAH metabolism was measured using conditions described above. […] Each experimental condition (e.g., substrate, concentration, time point, etc.) was conducted in triplicate.
(§7) Analytes were extracted from samples with liquid–liquid extraction and measured using high-performance liquid chromatography (HPLC). First, BaP, DBC, or retene was added as an internal standard depending on incubations conditions being tested. Samples were extracted using three 500 µL volumes of ethyl acetate. Extracts were dried under a gentle stream of nitrogen and resolubilized in 500 µL methanol. Analytes were quantified by reverse phase HPLC using an Agilent 1260 Infinity HPLC system equipped with an Agilent G4290B variable wavelength detector and an Agilent G1321B SPECTRA fluorescence detector (Santa Clara, CA, USA). […] Quantification was accomplished using a linear regression fit to an external calibration curve prepared in tandem with samples.
(§8) As with previous in vitro PAH metabolism studies conducted in our lab, metabolism rates were calculated based on substrate disappearance. […] Confidence intervals of metabolism rates were calculated using a nonparametric bootstrap, where metabolism rates were resampled with replacement at each concentration, and the regression was repeated on the resampled dataset (n = 1000). […]

[3] = target: dibenzo[def,p]chrysene (DBC) metabolism in human hepatic microsomes; test: as above; type: in vitro ADME; settings: substrate DBC 0.17 µM initial, human hepatic microsomes, apparent Ki, Equation (4); read-out: Inhibition constant (Ki) of competitive inhibitor to DBC metabolism
Description: as §6, §7, §8

[4] = parameters: method as in PMID 34933053; settings: cited from earlier work
CYP1A1 and CYP2C19 = settings: Supersomes expressing human CYPs; cited from earlier work
CYP3A4 = settings: Supersomes expressing human CYPs; cited from earlier work
[5] = cited from earlier work; for Carcinogenic (classifying agencies): classified as Suspected, Possible, Probable, or Confirmed carcinogen in animal models or humans by EPA, IARC or ACGIH
[6] = system: benzo[a]pyrene (BaP) metabolism in human hepatic microsomes; test: Competitive inhibition of BaP metabolism in human hepatic microsomes; type: in vitro ADME
Description: as §6, §7, §8

[7] = Michaelis-Menten clearance model fit, high-affinity/low-capacity enzyme

c1ccc2c(c1)cc1ccc3cccc4ccc2c1c34 [BaP, benzo[a]pyrene]
microsomal CLint ([1]; first order phase, Vmax divided by Km, read-out: Clint 1): 72 µL/min/mg
microsomal CLint ([1]; non-saturable low-affinity/high-capacity enzyme, read-out: Clint 2): 1.2 µL/min/mg
Km ([1]; pH 7.4, human hepatic microsomes, Michaelis-Menten clearance model fit, high-affinity/low-capacity enzyme, read-out: Km 1): 0.088 µM
Intrinsic clearance compared to that of DBC (human hepatic microsomes): nearly five-fold faster
Vmax1 (human hepatic microsomes; [7]): 0.0063 nmol/min/mg Micro
inhibition at 1 µM [2]: 62%
Ki [3]: 61 nM
log Kow [4]: 6.13
Share of BaP-7,8-diol produced by CYP1A1 and CYP2C19 (CYP1A1 and CYP2C19): 96%
Share of 3-hydroxy-BaP produced by CYP3A4 (CYP3A4): 53%

c1ccc2c(c1)ccc1c3ccccc3ccc21 [chrysene]
Carcinogenic (classifying agencies) [5]: EPA, ACGIH

c1ccc2c(c1)cc1ccc3cccc4c5ccccc5c2c1c34 [DBC, dibenzo[def,p]chrysene]
Rates of metabolism, times slower than rates of BaP metabolism (human hepatic microsomes): 3–5 times
Vmax1 (human hepatic microsomes; [7]): 0.0009 nmol/min/mg Micro
Km (human hepatic microsomes; Michaelis-Menten clearance model fit, high-affinity/low-capacity enzyme, read-out: Km 1): 0.06 µM
Clint 1 (human hepatic microsomes; first order phase, Vmax divided by Km): 0.015 mL/min
Clint 2 (human hepatic microsomes; non-saturable low-affinity/high-capacity enzyme): 0.0017 mL/min
Inhibition of the rate of BaP metabolism ([6]; inhibitor ≥1 µM, 0.14 µM BaP initial substrate concentration): ≥ 48%
Ki ([6]; read-out: Inhibition constant (Ki) of competitive inhibitor to BaP metabolism, substrate BaP 0.14-0.18 µM initial, human hepatic microsomes, apparent Ki, Equation (4)): 440 nM
log Kow [4]: 7.71
Relative Potency Factor ([5]; cancer potency relative to BaP index compound): 30

c1ccc2ccccc2c1 [naphthalene]
Carcinogenic (classifying agencies) [5]: EPA, IARC, ACGIH

c1ccc2cc3c(ccc4ccccc43)cc2c1 [benzo(a)anthracene]
Carcinogenic (classifying agencies) [5]: EPA, IARC, ACGIH
